Where only a bound is given, the exact number is not on record here.

Results on two substances are retold here after patent US10968269B1, “MHC multimers in borrelia diagnostics and disease” (Agilent Technologies, Inc., priority 2008, dated 2021).

The test system of assay [1] is T2 cells loaded with Bcl-X(L)173-182 peptide. The conditions noted are these: different concentrations of peptide, E:T ratio 1:1, FIG. 14; cited from earlier work.
Assay [2] has as its system Bcl-X(L)-specific, CD8 positive T cells. Conditions: PBL from a breast cancer patient, 106 PBL/well in doublets, compared to the absence of added peptide, FIG. 11; cited from earlier work.
Assay [3] deals with HLA-A*0201-β2m-… peptide-complex (human). The assay is described as follows: sandwich ELISA: W6/32 coated, MHC complex added, HRP rabbit anti-β2m detection; reference: free β2m.

Regarding YLNDHLEPWI (listed as Homo sapiens), the “effect of the peptide on killing of pulsed T2 target cells by clone 9” value in assay [1] was “significant even at low concentrations”. In addition, the “ELISPOT detection of BclX(L) specific T-cells (number of spots, IFN-gamma producing T-cells)” value in assay [2] is given as “clearly shows the presence of BclX(L) specific T-cells”.

Take “W6/32 mouse-anti-HLA-ABC antibody (Dako M0736)”: the OD450 ratio against the negative control β2m in assay [3] was more than 6 fold.
